What was measured:
[1] = system: Arabidopsis thaliana plants; test: Phenotypic analysis of herbicide-treated Arabidopsis plants (SOA1); assay type: in vivo; conditions: for characteristic symptoms (morphological phenotype): herbicide-treated Arabidopsis; for Dev. leafWidth: numeric values standardized to the average response for the mock treated tissues; for Dev. leafCurling / Dev. leafTwisting / Dev. matureLeafAnthocyanins / Dev. matureLeafChlorosis / Dev. matureLeafNecrosis / Dev. newLeafAnthocyanins / Dev. newLeafChlorosis / Dev. newLeafNecrosis / Dev. pointedLeaves: standardized to mock treated; for Symptom Class: three-week-old Arabidopsis sprayed with herbicide, phenotype classes of FIG. 12; for Dev. tMic: time for full range of symptoms at MIC, coded score
Arabidopsis thaliana [2] = test: Phenotypic profiling of Arabidopsis sprayed with unknown and commercial herbicides (MOA1); assay type: in vivo; conditions: Ward's method
Arabidopsis thaliana [3] = test: Biochemical (metabolite) profiling by LC-MS and GC-MS of sprayed Arabidopsis (MOA1); conditions: for stress related (commonly regulated) metabolites: within one hour after spraying
Arabidopsis thaliana [4] = test: Gene expression profiling of sprayed Arabidopsis (MOA1); assay type: in vivo
Magnaporthe grisea = assay type: cell-based

Row | Structure (SMILES) | characteristic symptoms (morphological phenotype) [1] | phenotype / hierarchical clustering of the eleven phenotypic characteristics (Arabidopsis thaliana [2]) | stress related (commonly regulated) metabolites (Arabidopsis thaliana [3]) | Dev. leafWidth [1] | Dev. leafCurling [1] | Dev. leafTwisting [1] | Dev. matureLeafAnthocyanins [1] | Dev. matureLeafChlorosis [1] | Dev. matureLeafNecrosis [1] | Dev. newLeafAnthocyanins [1] | Dev. newLeafChlorosis [1] | Dev. newLeafNecrosis [1] | Dev. pointedLeaves [1] | Symptom Class [1] | Dev. tMic [1] | other results
1 | Nc1nc[nH]n1 [Amitrole] | leaf bleaching and leaf enlargement | exhibited chlorosis and not true bleaching | – | – | – | – | – | – | – | – | – | – | – | – | – | –
2 | CC(C)OC(=O)Nc1cccc(Cl)c1 [Chloropropham] | – | neither showed a strong herbicidal phenotype | neither butylate nor chlorpropham treatment resulted in many changes | – | – | – | – | – | – | – | – | – | – | – | – | –
3 | CP(=O)(O)CCC(N)C(=O)O (centres unmarked) [Glufosinate] | Chlorosis and leaf curling | – | Only a few, if any | −2 | 2 | 1 | 0 | 3 | 0 | 0 | 3 | 0 | 1 | 3 | 1 | Regulated Genes: Down (Arabidopsis thaliana [4]; 1 hr, p < 0.5, arrays containing 22,000 Arabidopsis genes): 54; No. of Lethal Genes Altered (Arabidopsis thaliana [4]; regulated genes identified as essential genes in internal database): 10
4 | CCSC(=O)N(CC(C)C)CC(C)C [Butylate] | – | neither showed a strong herbicidal phenotype | neither butylate nor chlorpropham treatment resulted in many changes | – | – | – | – | – | – | – | – | – | – | – | – | –
5 | O=C(O)CNCP(=O)(O)O [Glyphosate] | anthocyanin accumulation in the older leaves accompanied by chlorosis of the newly emerging leaves | – | – | 0 | 0 | 0 | 3 | 1 | 3 | 1 | 2 | 0 | 1 | 4 | 2 | growth of M. grisea with ammonium or glutamine as nitrogen source (Magnaporthe grisea; 250 μg/ml): Little growth defect; growth of M. grisea with nitrate or glutamate as nitrogen source (Magnaporthe grisea; 250 μg/ml): inhibited growth; growth of M. grisea with nitrite as the sole nitrogen source (Magnaporthe grisea; 250 μg/ml): inhibited growth; growth results for Tiers 3 and 4 as compared to Unknown 4 (Magnaporthe grisea; 250 μg/ml): nearly identical; growth inhibition of M. grisea and its remediation (Magnaporthe grisea; 1.0 mg/ml): remediated by inclusion of aromatic amino acids; tyrosine level relative to the control (Arabidopsis thaliana [3]; early time points (20 min, 1 hour)): decreased relative to the control

Reference: patent US20040023295A1, “Methods and systems for analyzing complex biological systems” (priority 2001, published 2004)
